Results: ChEMBL document CHEMBL3046627, “Synthesis and in vitro study of antibacterial, antifungal activities of some novel bisquinolines” (2013)
Values after ≈ are worked out from the molar mass of the structure shown. Active and inactive are the calls of the source. The calls are words filed in the database; no cut-off is given here.

Columns and labels:
Assay type in all cases: functional
Shigella dysenteriae [1] = test: Antibacterial activity against Shigella dysenteriae 15 assessed as growth inhibition after 24 hr by agar dilution method
Klebsiella pneumoniae [2] = test: Antibacterial activity against Klebsiella pneumoniae J/I/4 assessed as growth inhibition after 24 hr by agar dilution method
Staphylococcus aureus [3] = test: Antibacterial activity against Staphylococcus aureus 29737 assessed as growth inhibition after 24 hr by agar dilution method
Pseudomonas aeruginosa [4] = test: Antibacterial activity against Pseudomonas aeruginosa 71 assessed as growth inhibition after 24 hr by agar dilution method
Micrococcus luteus [5] = test: Antibacterial activity against Micrococcus luteus ATCC 9341 assessed as growth inhibition after 24 hr by agar dilution method
Cryptococcus neoformans [6] = test: Antifungal activity against Cryptococcus neoformans assessed as growth inhibition after 96 hr by agar dilution method
Bacillus pumilus [7] = test: Antibacterial activity against Bacillus pumilus 11778 assessed as growth inhibition after 24 hr by agar dilution method
Cryptococcus neoformans [8] = test: Antifungal activity against Cryptococcus neoformans assessed as growth inhibition at MIC after 96 hr by agar dilution method
Candida albicans [9] = test: Antifungal activity against Candida albicans assessed as growth inhibition at MIC after 96 hr by agar dilution method
Candida tropicalis [10] = test: Antifungal activity against Candida tropicalis assessed as growth inhibition after 96 hr by agar dilution method
Aspergillus niger [11] = test: Antifungal activity against Aspergillus niger assessed as growth inhibition after 96 hr by agar dilution method
Escherichia coli [12] = test: Antibacterial activity against Escherichia coli 319 assessed as growth inhibition after 24 hr by agar dilution method
Aspergillus niger [13] = test: Antifungal activity against Aspergillus niger assessed as growth inhibition at MIC after 96 hr by agar dilution method
Candida tropicalis [14] = test: Antifungal activity against Candida tropicalis assessed as growth inhibition at MIC after 96 hr by agar dilution method
Candida albicans [15] = test: Antifungal activity against Candida albicans assessed as growth inhibition after 96 hr by agar dilution method
Vibrio cholerae [16] = test: Antibacterial activity against Vibrio cholerae 759 assessed as growth inhibition after 24 hr by agar dilution method
Staphylococcus aureus [17] = test: Antibacterial activity against Staphylococcus aureus 29737 assessed as growth inhibition at MIC after 24 hr by agar dilution method
Vibrio cholerae [18] = test: Antibacterial activity against Vibrio cholerae 759 assessed as growth inhibition at MIC after 24 hr by agar dilution method
Micrococcus luteus [19] = test: Antibacterial activity against Micrococcus luteus ATCC 9341 assessed as growth inhibition at MIC after 24 hr by agar dilution method
Shigella dysenteriae [20] = test: Antibacterial activity against Shigella dysenteriae 15 assessed as growth inhibition at MIC after 24 hr by agar dilution method
Klebsiella pneumoniae [21] = test: Antibacterial activity against Klebsiella pneumoniae J/I/4 assessed as growth inhibition at MIC after 24 hr by agar dilution method
Bacillus pumilus [22] = test: Antibacterial activity against Bacillus pumilus 11778 assessed as growth inhibition at MIC after 24 hr by agar dilution method
Escherichia coli [23] = test: Antibacterial activity against Escherichia coli 319 assessed as growth inhibition at MIC after 24 hr by agar dilution method
Pseudomonas aeruginosa [24] = test: Antibacterial activity against Pseudomonas aeruginosa 71 assessed as growth inhibition at MIC after 24 hr by agar dilution method
[25] = Staphylococcus aureus, 29737, 24 h
[26] = Pseudomonas aeruginosa, 71, 24 h

Structure (SMILES)	MIC (Shigella dysenteriae [1])	MIC (Klebsiella pneumoniae [2])	MIC (Staphylococcus aureus [3])	MIC (Pseudomonas aeruginosa [4])	MIC (Micrococcus luteus [5])	MIC (Cryptococcus neoformans [6])	MIC (Bacillus pumilus [7])	diameter of the inhibition zone (DIZ) (Cryptococcus neoformans [8])	diameter of the inhibition zone (DIZ) (Candida albicans [9])	MIC (Candida tropicalis [10])	MIC (Aspergillus niger [11])	MIC (Escherichia coli [12])	diameter of the inhibition zone (DIZ) (Aspergillus niger [13])	diameter of the inhibition zone (DIZ) (Candida tropicalis [14])	MIC (Candida albicans [15])	MIC (Vibrio cholerae [16])	diameter of the inhibition zone (DIZ) (Staphylococcus aureus [17]) [mm]	diameter of the inhibition zone (DIZ) (Vibrio cholerae [18])	MIC (Shigella dysenteriae [1]; Shigella dysenteriae, 15, 24 h) [µg/mL]	MIC (Klebsiella pneumoniae [2]; J/I/4, 24 h) [µg/mL]	also measured
c1cc(COc2cccc3cccnc23)cc(COc2cccc3cccnc23)c1	inactive	inactive	inactive	inactive	inactive	inactive	inactive	inactive	inactive	inactive	inactive	inactive	inactive	inactive	inactive	inactive					
Cc1ccc2cccc(OCc3cccc(COc4cccc5ccc(C)nc45)c3)c2n1	inactive	inactive	inactive	inactive	inactive	inactive	inactive	inactive	inactive	inactive	inactive	inactive	inactive	inactive	inactive	inactive					
Cc1ccc2cccc(OCc3cc4ccccc4cc3COc3cccc4ccc(C)nc34)c2n1						inactive				inactive	inactive				inactive		6.1	inactive	> 500	> 1000	MIC (Staphylococcus aureus [3]; [25]): > 500 µg/mL; diameter of the inhibition zone (DIZ) (Micrococcus luteus [19]): inactive; diameter of the inhibition zone (DIZ) (Shigella dysenteriae [20]): 8 mm; MIC (Pseudomonas aeruginosa [4]; [26]): > 500 µg/mL; diameter of the inhibition zone (DIZ) (Klebsiella pneumoniae [21]): inactive; diameter of the inhibition zone (DIZ) (Bacillus pumilus [22]): 6 mm; MIC (Micrococcus luteus [5]; ATCC 9341, 24 h): > 1000 µg/mL; MIC (Bacillus pumilus [7]; Bacillus pumilus, 11778, 24 h): 64 µg/mL (≈ 136 µM); diameter of the inhibition zone (DIZ) (Escherichia coli [23]): 7 mm; MIC (Escherichia coli [12]; Escherichia coli, 319, 24 h): > 500 µg/mL; diameter of the inhibition zone (DIZ) (Pseudomonas aeruginosa [24]): inactive; MIC (Vibrio cholerae [16]; Vibrio cholerae, 759, 24 h): > 500 µg/mL
OC(Cn1cncn1)(Cn1cncn1)c1ccc(F)cc1F [FLUCONAZOLE]						8 µg/mL (≈ 26.1 µM)		8.5 mm	10.2 mm	8 µg/mL (≈ 26.1 µM)	10 µg/mL (≈ 32.7 µM)		8.6 mm	8.5 mm	4 µg/mL (≈ 13.1 µM)						
c1ccc2cc(COc3cccc4cccnc34)c(COc3cccc4cccnc34)cc2c1						inactive				inactive	inactive				inactive		6	7.1 mm	> 500	> 500	MIC (Staphylococcus aureus [3]; [25]): > 500 µg/mL; diameter of the inhibition zone (DIZ) (Micrococcus luteus [19]): 6 mm; diameter of the inhibition zone (DIZ) (Shigella dysenteriae [20]): 6 mm; MIC (Pseudomonas aeruginosa [4]; [26]): > 500 µg/mL; diameter of the inhibition zone (DIZ) (Klebsiella pneumoniae [21]): 6.4 mm; diameter of the inhibition zone (DIZ) (Bacillus pumilus [22]): 9 mm; MIC (Micrococcus luteus [5]; ATCC 9341, 24 h): > 500 µg/mL; MIC (Bacillus pumilus [7]; Bacillus pumilus, 11778, 24 h): 256 µg/mL (≈ 579 µM); diameter of the inhibition zone (DIZ) (Escherichia coli [23]): 9.7 mm; MIC (Escherichia coli [12]; Escherichia coli, 319, 24 h): 32 µg/mL (≈ 72.3 µM); diameter of the inhibition zone (DIZ) (Pseudomonas aeruginosa [24]): 8.2 mm; MIC (Vibrio cholerae [16]; Vibrio cholerae, 759, 24 h): > 500 µg/mL
CC1(C)S[C@@H]2[C@H](NC(=O)[C@H](N)c3ccc(O)cc3)C(=O)N2[C@H]1C(=O)O [AMOXICILLIN]																	10.5	7 mm	100 (≈ 274 µM)	256 (≈ 701 µM)	MIC (Staphylococcus aureus [3]; [25]): 0.5 µg/mL (≈ 1.37 µM); diameter of the inhibition zone (DIZ) (Micrococcus luteus [19]): 11 mm; diameter of the inhibition zone (DIZ) (Shigella dysenteriae [20]): 9.5 mm; MIC (Pseudomonas aeruginosa [4]; [26]): 256 µg/mL (≈ 701 µM); diameter of the inhibition zone (DIZ) (Klebsiella pneumoniae [21]): 8 mm; diameter of the inhibition zone (DIZ) (Bacillus pumilus [22]): 10 mm; MIC (Micrococcus luteus [5]; ATCC 9341, 24 h): 1 µg/mL (≈ 2.74 µM); MIC (Bacillus pumilus [7]; Bacillus pumilus, 11778, 24 h): 0.5 µg/mL (≈ 1.37 µM); diameter of the inhibition zone (DIZ) (Escherichia coli [23]): 8 mm; MIC (Escherichia coli [12]; Escherichia coli, 319, 24 h): 4 µg/mL (≈ 10.9 µM); diameter of the inhibition zone (DIZ) (Pseudomonas aeruginosa [24]): 7.5 mm; MIC (Vibrio cholerae [16]; Vibrio cholerae, 759, 24 h): 256 µg/mL (≈ 701 µM)
Clc1ccc(OCc2ccc(COc3ccc(Cl)c4cccnc34)cc2)c2ncccc12	inactive	inactive	inactive	inactive	inactive	inactive	inactive			inactive	inactive	inactive			inactive	inactive					
